Here are results for one molecule from article PMC7556031, “Tofacitinib and Baricitinib Are Taken up by Different Uptake Mechanisms Determining the Efficacy of Both Drugs in RA” (International Journal of Molecular Sciences, 2020).

The experiment deals with T1, hMATE1 (multidrug and toxin extrusion protein 1) (Homo sapiens, UniProt Q96FL8).
T1 construct: gene SLC47A1; hMATE1 stably transfected in HEK293 cells
T1 sequence (Q96FL8 1-570): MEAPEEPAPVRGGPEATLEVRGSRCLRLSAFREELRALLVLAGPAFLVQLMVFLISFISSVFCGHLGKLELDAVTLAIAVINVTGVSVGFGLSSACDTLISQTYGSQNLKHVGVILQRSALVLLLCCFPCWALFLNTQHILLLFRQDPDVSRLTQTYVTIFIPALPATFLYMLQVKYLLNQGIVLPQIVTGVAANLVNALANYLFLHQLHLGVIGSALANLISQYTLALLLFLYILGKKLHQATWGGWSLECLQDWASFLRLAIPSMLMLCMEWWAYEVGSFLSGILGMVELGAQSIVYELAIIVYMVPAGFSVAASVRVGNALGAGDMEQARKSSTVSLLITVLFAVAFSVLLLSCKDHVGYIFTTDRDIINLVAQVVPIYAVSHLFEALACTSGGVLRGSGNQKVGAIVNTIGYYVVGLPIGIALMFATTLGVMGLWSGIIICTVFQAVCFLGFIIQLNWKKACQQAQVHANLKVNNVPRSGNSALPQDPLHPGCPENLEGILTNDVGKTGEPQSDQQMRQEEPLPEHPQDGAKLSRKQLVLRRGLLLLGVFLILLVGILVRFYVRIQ
The experiment can be described thus: cis-inhibition of ASP+ uptake in hMATE1-HEK293 cells after acidification; supported by LC/MS of temperature-dependent tofacitinib export. It counts as cell-based.

What is called IC50 is the point on the concentration scale where inhibition reaches its midpoint. Read a high IC50 as weaker potency. In turn, `C[C@@H]1CCN(C(=O)CC#N)C[C@@H]1N(C)c1ncnc2[nH]ccc12` [Tofacitinib] returned an IC50 of 19.8 µM.
